Experimental data taken from article PMC13194685 (Cell Death & Disease, 2026).

How the values were obtained:
STX1A = conditions: evONC T24; JGRi1 50, 250, 500 μM, sJGRi1 500 μM; one drop daily for 6 days; n = 5
Procedure: Mice were either left untreated or treated for 6 days with a single drop per day of JGRi1 dissolved into a balanced saline solution (BSS) buffer at different concentrations (50 μM, 250 μM, 500 μM). A total volume of 5 μL of JGRi1 solution was applied directly onto the cornea. Treated animals were kept immobilized and under observation for 1 minute to ensure proper peptide penetration within the eye. Animals were then euthanized via beheading. A scrambled version of the peptide (sJGRi1) at a concentration of 500 μM was included as a control. Subsequently, the optic nerve was cut, and the eyes were harvested according to our previously established protocol [25, 26]. The extracted eyes were kept in phosphate-buffered salt (PBS; Capricorn Scientifics, Germany) at 4 °C for 24 hours, then the retinas were dissected and processed accordingly.
Retinal cryosections were permeabilized using 0.5% Tryton-X (Merck, Germany) in PBS (Capricorn Scientifics, Germany) solution for 5 minutes. Then, blocked (0.1 M glycine, 2% w/v bovine serum albumin, 2% v/v fetal calf serum, 0.1% v/v Tryton-X) for 1 hour to avoid non-specific protein interactions. The primary antibody was diluted in the same blocking solution and held overnight at 4 °C. […] Fluorescence intensity was quantified by using ImageJ software.

[1] = tested on: retinal ganglion cells (RGCs); experiment: NMDA injection model: RGC viability, apoptosis, cytoarchitecture, CTB-488 transport; assay type: in vivo, C57BL/6J mice
JNK2 [2] = experiment: NMDA injection model: JNK2 immunofluorescence; assay type: in vivo, C57BL/6J mice; conditions: intravitreal NMDA; eye drops 250 μM daily; n = 4
Description: (§1) Fluorescence intensity was quantified by using ImageJ software.

microglia (IBA1) = experiment: NMDA injection model: microglial infiltration (IBA1 immunofluorescence); assay type: in vivo, C57BL/6J mice; conditions: intravitreal NMDA; eye drops 250 μM daily; n = 5
Description: as §1

L-glutamate = experiment: NMDA injection model: retinal and synaptic glutamate immunoreactivity; assay type: in vivo, C57BL/6J mice; conditions: intravitreal NMDA; eye drops 250 μM daily from one day prior to NMDA through follow-up; n = 3
Procedure: as §1
(§2) Co-localization between fluorescent signals in acquired images was expressed using Pearson’s score, which describes the correlation of the intensity distribution between two distinct fluorescent signals. The analysis was carried out using the “JACOP” plug-in available for the ImageJ software. At least 10 different fields per condition were utilized for the quantification.

JNK2 [3] = experiment: evONC model: JNK2 expression (immunofluorescence, immunoblot); assay type: in vivo, C57BL/6J mice; conditions: evONC T24; 500 μM eye drops (JGRi1 or sJGRi1), one drop daily for 6 days; n = 5
Description: (§3) Animals were then euthanized via beheading.
(§4) Western blots were quantified by densitometry using ImageJ software.
as §1

JNK2-STX1A interaction = target: T1, JNK2-STX1A interaction (Mus musculus, UniProt Q9WTU6); experiment: evONC model: JNK2-STX1A co-localization (Pearson's analysis); assay type: in vivo, C57BL/6J mice; conditions: evONC T24; JGRi1 50, 250, 500 μM, sJGRi1 500 μM; one drop daily for 6 days; n = 5
T1 construct: from tissue; host or cells: retinal cryosections of C57BL/6J mice
Procedure: as §3, §1, §2

[4] = tested on: A2 amacrine cells and rod bipolar cells (PROX1-positive); experiment: evONC model: PROX1-positive cells in the INL; assay type: in vivo, C57BL/6J mice; conditions: evONC T24; JGRi1 50, 250, 500 μM, sJGRi1 500 μM; one drop daily for 6 days; n = 3
Description: as §3, §1

[5] = tested on: retinal ganglion cells (RGCs); experiment: Ex vivo optic nerve cut (evONC) model: RGC viability, apoptosis, retinal cytoarchitecture; assay type: in vivo, C57BL/6J mice; conditions: evONC T24, JGRi1 50, 250, 500 μM, sJGRi1 500 μM, n = 4
Procedure: as §3, §4
The enucleated eyes were fixed in 4% paraformaldehyde solution overnight at 4 °C. Then, they were incubated in a 30% sucrose-in-PBS solution overnight, and finally, they were embedded in an optimal cutting temperature (OCT, Sigma, St. Louis, MO, USA) compound. Eyes were cut at a thickness of 20 μm. For reliability, the sections containing the optic nerve were utilized, and in each eye, at least five discontinuous sections were analyzed. For histological examination, cryosections were stained in Mayer’s Hematoxylin Solution (Merck, Germany), rinsed in tap water, then counterstained using Eosin Y alcoholic solution (Merck, Germany). Sections were mounted on coverslips with Eukitt (Merck, Germany), and observed under a light-transmission microscope (Nikon) with 40X magnification.
as §1

SNARE complex = experiment: evONC model: SNARE complex assay (native PAGE); assay type: in vivo, C57BL/6J mice; conditions: evONC T24; JGRi1 50, 250, 500 μM, sJGRi1 500 μM; one drop daily for 6 days; n = 6
Procedure: as §3
The modulation SNARE complex assembly by JGRi1 was evaluated via native PAGE. Briefly, samples were loaded using a non-denaturizing loading buffer (0.5 M Tris-HCl, pH 6.8, 15% v/v glycerol, and 1% v/v bromophenol blue). Samples were then left non-boiled to preserve protein-protein interaction, separated onto polyacrylamide gels, and then blotted onto nitrocellulose membranes. The immunoreactive bands were identified by using an antibody against STX1A, which is a core component of SNARE complexes. Bands starting from approximately 66 kDa were quantified as an indicator of the SNARE complex assembly upon treatment. β-tubulin was used as the loading control for quantification.

Sequence: RISEQLSNIEEGQE [sJGRi1, control]
- STX1A level (immunofluorescence) (STX1A): does not have any effect on JNK2 nor STX1A expression at T24
- RBPMS-positive cells (immunofluorescence), RGC viability ([1]; intravitreal NMDA 250 μM, 2 μL, eye drops 250 μM, 4 µL daily, from 24 hours prior to NMDA through the 4-week study period, n = 4): had no effect on either RGC viability or apoptosis
- retinal cytoarchitecture (hematoxylin/Eosin staining) ([1]; intravitreal NMDA, eye drops 250 μM daily from one day prior to NMDA through follow-up, n = 3): failed to do so
- c-CASP3 immunoreactivity / c-CASP3-positive cells, apoptosis ([1]; intravitreal NMDA, eye drops 250 μM daily from one day prior to NMDA through follow-up, n = 4): had no effect on either RGC viability or apoptosis
- uptake and transport of the neural tracer CTB-488 in RGCs (mean fluorescence intensity) ([1]; intravitreal NMDA, eye drops 250 μM daily, CTB-488 1 µL intravitreal before sacrifice, n = 5): diminished CTB uptake and transport in RGCs
- JNK2 immunoreactivity (immunofluorescence) (JNK2 [2]): did not prevent the NMDA-induced increase in JNK2 expression in the inner retina
- IBA1 immunoreactivity (microglial infiltration) (microglia (IBA1)): no reduction was seen upon treatment with sJGRi1
- L-glutamate immunofluorescence in retinal tissue (L-glutamate): had no effect
- JNK2 immunoreactivity (immunofluorescence) (JNK2 [3]): does not have any effect on JNK2 nor STX1A expression at T24
- JNK2-STX1A co-localization (co-immunofluorescence, Pearson's analysis) (JNK2-STX1A interaction): produced an even more marked co-localization between JNK2 and STX1A
- number of PROX1-positive cells in the INL [4]: did not produce any protective effect on PROX1-positive cell number
- RBPMS-positive cells in the GCL (immunofluorescence), RGC viability ([5]; one drop daily for 6 days before evONC): failed to rescue RGC viability upon evONC
- RBPMS expression (immunoblot, densitometry vs β-TUB) ([5]; one drop daily for 6 days): did not produce any protective effect on RGC viability in comparison to the active peptide
- SNARE complex formation (STX1A signal from about 66 kDa, non-boiled samples, vs β-TUB) (SNARE complex): did not produce any effect on SNARE complex formation
